Measured values as given in patent publication US20190192522A1, “INHIBITORS OF THE FIBROBLAST GROWTH FACTOR RECEPTOR 4 IN COMBINATION WITH CYCLIN-DEPENDENT KINASE INHIBITORS” (BLUEPRINT MEDICINES CORPORATION, priority 2016, published 2019).

Legend:
[1] = tested on: LIX-066 human primary hepatocellular carcinoma model; assay: In vivo efficacy study in LIX-066 xenograft model; parameters: species or system mice; conditions: bid, po, D28
Procedure: LIX-066 was a human primary hepatocellular carcinoma model from ChemPartner. 130 mice were implanted for this study. Two animals were designated as sentinels; 2 animals were designated as extras.
Animals were monitored daily by general clinical observation throughout the study period. Body weights were recorded twice weekly before randomization and recorded every day during dosing period and the dose was adjusted per body weight. Tumor areas (length×width) was measured two to three times per week by using digimatic callipers throughout the study period and tumor volumes were calculated based on the following formula: tumor volume=[…]. The tumor volume was then used for calculations of net tumor growth inhibition (TGIn) values. The TGIn (in percent) is the indication of anti-tumor activity. TGIn (%)=[1−avTi-0/avCi-0)]×100; avTi-0 is the average of the tumor volume of each mouse in the treatment group on a specific day minus the tumor volume of each mouse in the treatment group on the first day; avCi-0 is the average of the tumor volume of each mouse in the Vehicle control group on a specific day minus the tumor volume of each mouse in the Vehicle control group on the first day of treatment. Efficacy data was graphically represented as the mean tumor volume±standard error of the mean (SEM).
Based on about 40% take rate, 50 animals were selected for efficacy study when their tumors reach appropriate size (100-300 mm^3). Five animals were used for plasma PK standard control. All other animals were euthanized. The 50 animals were randomized (blocked randomization/using Excel software) and divided into the following groups for compound administration:
Group 1: N=10; Vehicle control (PEG400: 20% HP-γ-CD=3:2)
Group 2: N=10; Compound 1, 30 mg/kg, bid, po
Group 3: N=10; Compound 1, 100 mg/kg, bid, po […]
All animals were monitored daily for clinical observation (animal mortality, appearance, spontaneous activity, body posture, and food and water intake. Any lesions and adverse reactions were recorded). […]
The mice were euthanized and the tumor weights were measured without sampling.

[2] = tested on: Huh-7 liver cancer xenograft; assay: Huh-7 liver cancer xenograft efficacy study in female Balb/c nude mice; assay type: in vivo, Mus Musculus; conditions: day eighteen
Procedure: Each mouse was inoculated subcutaneously at the right flank with tumor cells (5×10^6) in 0.2 ml of PBS supplemented with Matrigel (50:50) for tumor development. The treatments were started on day 11 after tumor inoculation when the average tumor size reached approximately 183 mm^3. Each group consisted of nine tumor-bearing mice.
Tumor size was measured twice weekly in two dimensions using a caliper, and the volume was expressed in mm^3 using the formula: […]
where a and b are the long and short diameters of the tumor, respectively. The tumor size was then used to calculate TGI and T/C values.
TGI was calculated for each group using the formula: […]
where Ti is the average tumor volume of a treatment group on a given day; T0 is the average tumor volume of the treatment group on the day treatment began; Vi is the average tumor volume of the vehicle control group on the same day Ti was measured, and V0 is the average tumor volume of the vehicle group on the day treatment began. The T/C value (in percent) is an indication of antitumor effectiveness. T and C are the mean volumes of the treated and control groups, respectively, on a given day.
Summary statistics, including mean and the standard error of the mean (SEM), were provided for the tumor volume of each group at each time point. For tumor volume comparison among more than two groups, a one-way ANOVA was performed. For comparisons between two groups, a t-test was performed. All analysis was run in GraphPad Prism 5.0, with p<0.05 considered to be statistically significant.
For all groups, at four hours after last dosing, tumor samples were collected in less than one minute after the euthanasia. Four tumors in each group were snap frozen; four tumors were fixed and made into FFPE.

[3] = Tolerability in Hep3B and LIX-066 tumor models; assay type: in vivo
Procedure: All animals were monitored daily for clinical observation (animal mortality, appearance, spontaneous activity, body posture, and food and water intake. Any lesions and adverse reactions were recorded). Any animals showing signs of debilitation, marked body weight loss (>20%), cachexia or large tumors that would inhibit an animal's ability to eat and drink or mobility were euthanized immediately. Any animals with severely ulcerated, infected or severely hemorrhagic tumors, or tumors whose estimated weight exceed 20% of the body weight were euthanized.
(§1) A similar study as described above was carried out using Hep3B-FGF19 amplified mice. Tumor volume results are shown in (FIG. 10A). Compound 1 monotherapy induced Hep3B tumor shrinkage (100% regression, >20% CRs).

[4] = tested on: Hep3B tumor; assay: In vivo efficacy study in Hep3B-FGF19 amplified mice; conditions: Compound 1 monotherapy
Procedure: as §1

[5] = tested on: HCC cell lines with an intact FGFR4 signaling pathway (FGFR4, FGF19, and KLB); conditions: Hagel et al., Cancer Discovery (2015); cited from earlier work
[6] = Body weight in Huh-7 xenograft study; conditions: palbociclib 90 mg/kg group, day fourteen
Procedure: Female Balb/c nude mice (Mus Musculus) between six and eight weeks old and weighing 18 to 20 g were used to evaluate the therapeutic efficacy of palbociclib and Compound 1 as monotherapies and in combination in Huh-7 liver cancer xenograft models. The tumor cells were maintained in vitro as a monolayer culture in DMEM medium supplemented with 10% heat inactivated fetal bovine serum at 37° C. in a 5% CO2 atmosphere. The tumor cells were routinely subcultured twice weekly by trypsin-EDTA treatment. The cells growing in an exponential growth phase were harvested and counted for tumor inoculation.
Palbociclib treated animals were supplied with sunflower seeds to mitigate body weight loss on and after day eight per the sponsor's approval.

SMILES: C=CC(=O)N[C@H]1CCOC[C@H]1Nc1ncc2cc(-c3c(Cl)c(OC)cc(OC)c3Cl)ccc2n1 [Compound 1, N-((3S,4S)-3-((6-(2,6-dichloro-3,5-dimethoxyphenyl)quinazolin-2-yl)amino)tetrahydro-2H-pyran-4-yl)acrylamide]
- average tumor volume ([1]; Compound 1 30 mg/kg): 262.87 mm^3
- average tumor volume ([1]; Compound 1 100 mg/kg): 168.03 mm^3
- average tumor volume ([1]; Compound 1 200 mg/kg): 112.22 mm^3
- T/C value ([2]; Compound 1 30 mg/kg bid): 57%
- average tumor size ([2]; Compound 1 30 mg/kg bid): 1612 mm^3
- T/C value ([2]; Compound 1 100 mg/kg bid): 24%
- average tumor size ([2]; Compound 1 100 mg/kg bid): 690 mm^3
- T/C value ([2]; Compound 1 200 mg/kg bid): 7%
- average tumor size ([2]; Compound 1 200 mg/kg bid): 198 mm^3
- tolerability [3]: well tolerated
- CRs [4]: > 20%
- Hep3B tumor shrinkage (regression) [4]: 100%

SMILES: C=CC(=O)Nc1cccc(C)c1Nc1ncc2cc(-c3c(Cl)c(OC)cc(OC)c3Cl)ccc2n1 [Compound 2, N-(2-((6-(2,6-dichloro-3,5-dimethoxyphenyl)quinazolin-2-yl)amino)-3-methylphenyl)acrylamide]
- proliferation in HCC cell lines [5]: inhibit proliferation

SMILES: CC(=O)c1c(C)c2cnc(Nc3ccc(N4CCNCC4)cn3)nc2n(C2CCCC2)c1=O [palbociclib, 6-acetyl-8-cyclopentyl-5-methyl-2-{[5-(1-piperazinyl)-2-pyridinyl]amino}pyrido[2,3-d]pyrimidin-7(8H)-one, reference compound]
- T/C value ([2]; palbociclib 45 mg/kg): 71%
- average tumor size ([2]; palbociclib 45 mg/kg): 1992 mm^3
- T/C value ([2]; palbociclib 90 mg/kg): 41%
- average tumor size ([2]; palbociclib 90 mg/kg): 1169 mm^3
- body weight loss (same animal, euthanized) [6]: > 20%
